Measurements: publication PMC9549030, “Structural basis for specific inhibition of the deubiquitinase UCHL1” (Nature Communications, 2022)
Substitutions are numbered along the chain they refer to. Several values for one entry are separate records, joined by “and”; a condition that tells them apart may be missing. Equal values may be shown once. Read-outs that look alike come from different tables or passages of the source.

Key:
UCHL3 A11I = target: T1, UCHL3 A11I (Homo sapiens, UniProt P15374, A11I); experiment: Ub-Rhodamine (Ubiquitin rhodamine cleavage) assay; format: biochemical
T1 sequence (P15374 1-230 A11I): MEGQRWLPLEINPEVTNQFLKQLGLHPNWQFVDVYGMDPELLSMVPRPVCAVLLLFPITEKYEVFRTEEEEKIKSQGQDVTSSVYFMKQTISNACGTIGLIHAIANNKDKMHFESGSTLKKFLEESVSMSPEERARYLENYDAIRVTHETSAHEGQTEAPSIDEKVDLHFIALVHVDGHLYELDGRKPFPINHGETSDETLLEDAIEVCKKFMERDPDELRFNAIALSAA

[1] = system: monoubiquitin in U-87 MG cells; experiment: Quantification of monoubiquitin levels; format: cell-based, human; conditions: 48 h; for monoubiquitin intensity normalized to DMSO (= 1): independent experiments
Procedure: U-87 MG cells (5 × 10^5/well) were seeded in six-well plates and cultivated for 8 h. Cells were transfected with siRNA as described above. On the next day, cells were cultured in fresh media supplemented with either compounds (final conc. 5 µM) or DMSO, where indicated, for a further 48 h. The media was changed every 24 h to a fresh medium supplemented with compounds (final conc. 5 µM) or DMSO. […] Monoubiquitin band intensities were first normalized to α-tubulin or total protein (Fast Green FCF, TCI) and subsequently normalized to the intensities of monoubiquitin bands in the sample treated with DMSO or siScr (where no DMSO was used) which was set to “1”.

UCHL3 = target: T2, UCHL3 (Homo sapiens, UniProt P15374); experiment: Ub-Rhodamine (Ubiquitin rhodamine cleavage) assay; format: biochemical; conditions: for normalized UCHL3 activity: independent experiments
T2 sequence (P15374 1-230): T1 sequence (P15374 1-230 A11I) with I11A

UCHL1 = target: T3, UCHL1 (Homo sapiens, UniProt P09936); experiment: Ub-Rhodamine (Ubiquitin rhodamine cleavage) assay; format: biochemical; conditions: for normalized UCHL1 activity: independent experiments
T3 sequence (P09936 1-223): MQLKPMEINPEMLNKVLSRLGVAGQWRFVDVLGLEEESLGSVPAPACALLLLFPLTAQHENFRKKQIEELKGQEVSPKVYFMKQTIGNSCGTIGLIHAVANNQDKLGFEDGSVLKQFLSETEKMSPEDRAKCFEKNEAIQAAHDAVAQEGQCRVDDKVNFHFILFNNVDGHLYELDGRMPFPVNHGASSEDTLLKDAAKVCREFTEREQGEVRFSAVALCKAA

UCHL1 in U-87 MG cells = system: T4, UCHL1 in U-87 MG cells; experiment: Cellular Ub-probe (HA-Ub-VS) competition, inhibition of cellular UCHL1; format: cell-based, human; conditions: 1 or 24 h
T4 construct: Western blot analysis of endogenous UCHL1 labeled with HA-Ub-VS after treatment of U-87 MG cells; endogenous in cells; host or cells: U-87 MG
Procedure: (§1) Proteins were transferred to a polyvinylidene fluoride (PVDF, only experiments in Fig. 4e and Supplementary Fig. 7e, f) or nitrocellulose (all other experiments) membrane using a Trans-Blot Turbo system (Bio-Rad, 1.3 A, 25 V, 10 min). The membranes were blocked with 5% (m/v) nonfat milk in PBS-T buffer and incubated with indicated primary antibodies (anti-UCHL1, 1:1000, Cell Signaling, D3T2E; anti-PARK7, 1:1000, Cell Signaling, D29E5; anti-Tubulin, 1:4000, Sigma, T6199; anti-Hemagglutinin, 1:1000, BioLegend, 16B12; anti-flag, 1:2000, Sigma, F3165; anti-Ubiquitin, 1:1000, Cell Signaling, P4D1; anti-Ubiquitin, 1:300, Santa Cruz, P4D1, sc-8017; anti-UCHL3, 1:1000, Proteintech, 12384-1-AP) overnight. Then the membranes were incubated with the respective secondary antibody (anti-mouse,1:5000, Sigma, NXA931; anti-rabbit, 1:5000, Sigma, GENA934) coupled to horseradish peroxidase. The chemiluminescent reaction was initiated using a Clarity Western ECL substrate (Bio-Rad) and images were taken on a ChemiDoc MP Imaging System (Bio-Rad).
(§2) The total protein concentration was adjusted to 2 mg/ml by diluting each sample with ABP lysis buffer. A final concentration of 1 µM HA-Ub-VS probe was added, followed by incubation for 30 min at 37 °C. The labeling reaction was quenched by the addition of 4x LDS sample buffer. The samples were separated via SDS-PAGE and further analyzed via western blotting as described above.

UCHL1 in HEK293 cells = system: T5, UCHL1 in HEK293 cells; experiment: as above; format: cell-based, human; conditions: HEK293 cells
T5 construct: Western blot analysis of endogenous UCHL1 labeled with HA-Ub-VS after treatment of HEK293 cells; endogenous in cells; host or cells: HEK293
Procedure: as §1, §2

[2] = GK13S 0.610352 nM, 1 h preincubation
[3] = GK13S 1.2207 nM, 1 h preincubation
[4] = GK13S 2.44141 nM, 1 h preincubation
[5] = GK13S 4.88281 nM, 1 h preincubation
[6] = GK13S 9.76562 nM, 1 h preincubation
[7] = GK13S 19.5312 nM, 1 h preincubation
[8] = GK13S 39.0625 nM, 1 h preincubation
[9] = 1 h, read-out: UCHL1 activity, data point mean

## C#CCCCNC(=O)c1ccc(-n2cnc(NC(=O)[C@H]3CCN(C#N)C3)c2)cc1 [GK13S]
UCHL3 A11I
  IC50: 32000 ± 7000 nM
[1]; 5 µM
  levels of free monoubiquitin (western blot): reduced
[1]; siSCr, 5 µM
  monoubiquitin intensity normalized to DMSO (= 1): 0.576 and 0.6744 and 0.83 and 0.6532
[1]; siUCHL3, 5 µM
  monoubiquitin intensity normalized to DMSO (= 1): 0.757 and 0.6937 and 0.5404 and 0.5552 and 0.8593 and 0.6907
UCHL3; Fig. 6b, catalytic domain, 1 h preincubation, read-out: IC50 (UCHL3)
  IC50: > 10000 nM
UCHL3; GK13S 0.305176 nM, 1 h preincubation
  normalized UCHL3 activity: 0.9831 and 1.008 and 0.9131 and 1.009
UCHL3; [2]
  normalized UCHL3 activity: 1.008 and 0.9835 and 0.9698 and 1.0514
UCHL3; [3]
  normalized UCHL3 activity: 0.9936 and 1.008 and 1.001 and 1.003
UCHL3; [4]
  normalized UCHL3 activity: 1.012 and 1.01 and 1.135 and 1.033
UCHL3; [5]
  normalized UCHL3 activity: 1.012 and 1.015 and 0.9843 and 1.023
UCHL3; [6]
  normalized UCHL3 activity: 0.9453 and 1.0198 and 0.9972 and 1.02
UCHL3; [7]
  normalized UCHL3 activity: 1.009 and 0.9664 and 0.9869 and 0.9884
UCHL3; [8]
  normalized UCHL3 activity: 0.985 and 0.9652 and 1.009 and 1.006
UCHL3; GK13S 78.125 nM, 1 h preincubation
  normalized UCHL3 activity: 1.004 and 0.9567 and 0.9151 and 0.8923
UCHL3; GK13S 156.25 nM, 1 h preincubation
  normalized UCHL3 activity: 0.9712 and 0.9475 and 0.9259 and 1.044
UCHL3; GK13S 312.5 nM, 1 h preincubation
  normalized UCHL3 activity: 1.024 and 0.9438 and 0.9427 and 1.0301
UCHL3; GK13S 625 nM, 1 h preincubation
  normalized UCHL3 activity: 1.039 and 0.9614 and 0.9134 and 1.027
UCHL3; GK13S 1250 nM, 1 h preincubation
  normalized UCHL3 activity: 1.008 and 0.9574 and 0.9187 and 1.016
UCHL3; GK13S 2500 nM, 1 h preincubation
  normalized UCHL3 activity: 0.975 and 0.9516 and 0.9328 and 0.9957
UCHL3; GK13S 5000 nM, 1 h preincubation
  normalized UCHL3 activity: 0.9885 and 0.924 and 0.8998 and 0.9921
UCHL3; GK13S 10000 nM, 1 h preincubation
  normalized UCHL3 activity: 0.972 and 0.9338 and 0.9178 and 0.9898
UCHL3; Supplementary Fig. 10c, 3 independent experiments, read-out: IC50 (UCHL3 wt)
  IC50: > 100000 nM
UCHL1; [9]
  remaining activity at 0.000610352 µM: 98.8%
  remaining activity at 0.0012207 µM: 96.5%
  remaining activity at 0.00244141 µM: 95%
  remaining activity at 0.00488281 µM: 91.2%
  remaining activity at 0.00976562 µM: 85.3%
  remaining activity at 0.0195312 µM: 76.8%
  remaining activity at 0.0390625 µM: 65.7%
  remaining activity at 0.078125 µM: 44.1%
  remaining activity at 0.15625 µM: 23.2%
  remaining activity at 0.3125 µM: 8.06%
  remaining activity at 0.625 µM: 3.5%
  remaining activity at 1.25 µM: 2.31%
  remaining activity at 2.5 µM: 3.03%
  remaining activity at 5 µM: 1.18%
  remaining activity at 10 µM: 0.488%
UCHL1; 1 h preincubation, mean ± SD of independent experiments, read-out: IC50 (UCHL1)
  IC50: 50 nM
UCHL1; Fig. 6b, catalytic domain, 1 h preincubation with GK13S, read-out: IC50 (UCHL1)
  IC50: 87 ± 8 nM
UCHL1; [2]
  normalized UCHL1 activity: 0.9506 and 0.9879 and 1.014 and 0.9975 and 0.9955
UCHL1; [3]
  normalized UCHL1 activity: 0.9497 and 0.9646 and 1.019 and 1.0024 and 0.9988
UCHL1; [4]
  normalized UCHL1 activity: 0.9185 and 0.9495 and 1.017 and 0.9974 and 0.9924
UCHL1; [5]
  normalized UCHL1 activity: 0.8798 and 0.9115 and 1.0474 and 0.9893 and 0.9704
UCHL1; [6]
  normalized UCHL1 activity: 0.8185 and 0.8529 and 0.9722 and 1.013 and 0.9579
UCHL1; [7]
  normalized UCHL1 activity: 0.7093 and 0.7679 and 0.9238 and 0.9667 and 0.9242
UCHL1; [8]
  normalized UCHL1 activity: 0.5709 and 0.6568 and 0.8808 and 0.9371 and 0.8799
UCHL1; source data Fig. 3b, 1 h preincubation, read-out: Averaged IC50s from independent experiments (single experiments)
  IC50: 36 nM and 65 nM and 49 nM
UCHL1 in U-87 MG cells
  inhibition of cellular UCHL1: complete inhibition
UCHL1 in HEK293 cells; 1 µM, 24 h
  inhibition of cellular UCHL1: near complete inhibition
UCHL1 in HEK293 cells; 5 µM, 24 h
  inhibition of cellular UCHL1: Full inhibition
UCHL1 in HEK293 cells; 1 and 5 µM, 1 h and 24 h (Supplementary Fig. 5f)
  inhibition of cellular UCHL1: time- and concentration-dependent inhibition
